Source: the NIST ThermoML archive (doi:10.1016/j.jct.2017.12.002)
Numbers after ± are expanded uncertainties.

Tests used:
[1] = 101.33 kPa, Liquid, Vibrating tube method
[2] = refractive index (Na D-line) (dimensionless); conditions: 101.33 kPa, Liquid, Standard Abbe refractometry

Row | mass density ([1]; 293.15 K) [kg/m3] | mass density ([1]; 295.15 K) [kg/m3] | mass density ([1]; 297.15 K) [kg/m3] | mass density ([1]; 298.15 K) [kg/m3] | mass density ([1]; 298.6 K) [kg/m3] | refractive index ([2]; 293.15 K) | refractive index ([2]; 298.15 K) | mass density ([1]; 301.35 K) [kg/m3] | Compound
1 | 664.225 ± 0.17 | 662.39 ± 0.18 | 660.589 ± 0.17 | 659.736 ± 0.18 | 659.308 ± 0.18 | 1.37654 ± 0.00041 | 1.37387 ± 0.00041 | – | CCC(C)CC [3-methylpentane]
2 | 673.227 ± 0.17 | 670.871 ± 0.17 | 668.986 ± 0.17 | 668.033 ± 0.17 | – | 1.38796 ± 0.00041 | 1.3851 ± 0.00041 | 664.998 ± 0.17 | C=CCCCC [hex-1-ene]
